# In US11186554B2, “Non-fused tricyclic compounds” (VIVACE THERAPEUTICS, INC., priority 2017, dated 2021):
# System: firefly luciferase activity
# Assay: Dual-Glo firefly/renilla luciferase reporter assay in cells
# Type: cell-based
# Conditions: 24 h, read-out: Firefly Luciferase IC50 (μM)
row,SMILES,IC50
1,"OCCn1nnc(-c2cc(C(F)(F)F)ccc2Nc2ccc(C(F)(F)F)cc2)n1 [Compound 262, 2-(5-(5-(trifluoromethyl)-2-((4-(trifluoromethyl)phenyl)amino)phenyl)-2H-tetrazol-2-yl)ethanol]",0.1 to 1 µM
2,"OCCn1nnc(-c2ccc(Cl)cc2Nc2ccc(C(F)(F)F)cc2)n1 [Compound 239, 2-(5-(4-chloro-2-((4-(trifluoromethyl)phenyl)amino)phenyl)-2H-tetrazol-2-yl)ethanol]",< 0.1 µM
3,"FC(F)(F)c1ccc(Nc2ccccc2-c2nnn(CCOC3CCNCC3)n2)cc1 [Compound 198, 2-(2-(2-(piperidin-4-yloxy)ethyl)-2H-tetrazol-5-yl)-N-(4-(trifluoromethyl)phenyl)aniline]",0.1 to 1 µM
4,"OCCn1nnc(-c2ccccc2Nc2ccccc2F)n1 [Compound 36, 2-(5-(2-((2-fluorophenyl)amino)phenyl)-2H-tetrazol-2-yl)ethanol]",1 to 5 µM

# Same assay, conditions: 24 hrs compound treatment, starting from 3 uM, 1:3 dilution, 10 points; read-out: Firefly Luciferase IC50
row,SMILES,IC50
1,"CNCCCn1nnc(-c2ccccc2Nc2ccc(C(F)(F)F)cc2)n1 [Compound 220, 2-(2-(3-(methylamino)propyl)-2H-tetrazol-5-yl)-N-(4-(trifluoromethyl)phenyl) Aniline]",1 to 5 µM
2,"CS(=O)(=O)NCCCn1nnc(-c2ccccc2Nc2ccc(C(F)(F)F)cc2)n1 [Compound 109, N-(3-(5-(2-((4-(trifluoromethyl)phenyl)amino)phenyl)-2H-tetrazol-2-yl)propyl)methanesulfonamide]",1 to 5 µM
3,"CC(=O)OC1(Cn2nnc(-c3ccccc3Nc3ccc(C(F)(F)F)cc3)n2)CN(C(C)=O)C1 [Compound 162, [1-acetyl-3-[[5-[2-[4-(trifluoromethyl)anilino]phenyl]tetrazol-2-yl]methyl]azetidin-3-yl]acetate]",1 to 5 µM
4,"Cc1c(-c2ccccc2Nc2ccc(C(F)(F)F)cc2)cnn1CCO [Compound 84, 2-[5-methyl-4-[2-[4-(trifluoromethyl)anilino]phenyl]pyrazol-1-yl]ethanol]",1 to 5 µM
5,"OCCn1nnc(-c2ccccc2Nc2cc(Cl)c(Cl)c(Cl)c2)n1 [Compound 253, 2-(5-(2-((3,4,5-trichlorophenyl)amino)phenyl)-2H-tetrazol-2-yl)ethanol]",1 to 5 µM
6,"OC1(Cn2nnc(-c3ccccc3Nc3ccc(C(F)(F)F)cc3)n2)CCCCC1 [Compound 133, 1-[[5-[2-[4-(trifluoromethyl)anilino]phenyl]tetrazol-2-yl]methyl]cyclohexanol]",0.1 to 1 µM
7,"COCCn1nnc(-c2ccccc2Nc2cccc(C(F)(F)F)c2)n1 [Compound 5, 2-[2-(2-methoxyethyl)tetrazol-5-yl]-N-[3-(trifluoromethyl)phenyl]aniline]",1 to 5 µM

# Further lines, results first:
row,IC50,SMILES
1,0.1 to 1 µM,"O[C@@H]1CCC[C@@H]1n1nnc(-c2ccccc2Nc2ccc(C(F)(F)F)cc2)n1 [Compound 200, (1R,2S)-2-(5-(2-((4-(trifluoromethyl)phenyl)amino)phenyl)-2H-tetrazol-2-yl)cyclopentan-1-ol]"
2,0.1 to 1 µM,"FCCn1nnc(-c2ccccc2Nc2ccc(C(F)(F)F)cc2)n1 [Compound 117, 2-[2-(2-fluoroethyl)tetrazol-5-yl]-N-[4-(trifluoromethyl)phenyl]aniline]"
3,< 0.1 µM,"C[C@@H](O)[C@H](C)n1nnc(-c2ccccc2Nc2ccc(C(F)(F)F)cc2)n1 [Compound 194, (2R,3S)-3-(5-(2-((4-(trifluoromethyl)phenyl)amino)phenyl)-2H-tetrazol-2-yl)butan-2-ol]"
4,0.1 to 1 µM,"OC1(Cn2nnc(-c3ccccc3Nc3ccc(C(F)(F)F)cc3)n2)CNC1 [Compound 157, 3-[[5-[2-[4-(trifluoromethyl)anilino]phenyl]tetrazol-2-yl]methyl]azetidin-3-ol]"
5,0.1 to 1 µM,"FC(F)(F)c1ccc(Nc2ccccc2-c2nnn(CC3COC3)n2)cc1 [Compound 166, 2-(2-(oxetan-3-ylmethyl)-2H-tetrazol-5-yl)-N-(4-(trifluoromethyl)phenyl) Aniline]"
6,< 0.1 µM,"OC(Cn1nnc(-c2ccccc2Nc2ccc(C(F)(F)F)cc2)n1)C1CC1 (stereo not drawn) [Compound 127, 1-cyclopropyl-2-[5-[2-[4-(trifluoromethyl)anilino]phenyl]tetrazol-2-yl]ethanol]"
7,< 0.1 µM,"C[C@H](O)[C@H](C)n1nnc(-c2ccccc2Nc2ccc(C(F)(F)F)cc2)n1 [Compound 192, (2S,3S)-3-(5-(2-((4-(trifluoromethyl)phenyl)amino)phenyl)-2H-tetrazol-2-yl)butan-2-ol]"
